What was measured:
[1] = tested on: abnormal prion proteins in ScN2a cells with persistent infection of scrapie; experiment: cells; format: cell-based, mouse; settings: for IC50: Mus musculus, ScN2a, 96 h, read-out: Inhibitory effects on producing abnormal prion protein IC50; for Inhibitory effects on producing abnormal prion proteins (in words): ScN2a cells
ScN2a cells = settings: mouse

Row | SMILES | IC50 [1] | Concentration of inhibiting cell proliferation TC (ScN2a cells) | Inhibitory effects on producing abnormal prion proteins (in words) [1]
1 | Cc1cc2[nH]c(-c3ccc(N)cc3)nc2cc1N [Compound N-242, 2-(4-aminophenyl)-5-amino-6-methyl-benzimidazole] | 100 nM | 10 µM | –
2 | Nc1ccc(C(=O)Nc2ccc(-c3nc4cc(N)ccc4[nH]3)cc2)cc1 [Compound N-243, 4-(5-aminobenzimidazol-2-yl)-N-(4-amino-benzoyl)aniline] | 1 nM | >10 µM | highly inhibitory effects
3 | Nc1ccc(-c2nc3cc(Oc4ccc(Oc5ccc6[nH]c(-c7ccc(N)cc7)nc6c5)cc4)ccc3[nH]2)cc1 [Compound N-244] | 10 nM | >10 µM | –
4 | Nc1ccc(-c2nc3ccc(N)cc3[nH]2)cc1 [Compound N-245, 2-(4-aminophenyl)-5-aminobenzimidazole] | 100 nM | 10 µM | –
5 | Nc1ccc(C(=O)Nc2ccc(-c3nc4cc(Cl)c(NC(=O)c5ccc(N)cc5)cc4[nH]3)cc2)cc1 [Compound N-246, 4-[6-(N′-(4-amino-benzoyl)amino)-5-chlorobenzimidazol-2-yl]-N-(4-aminobenzoyl)aniline] | 1 nM | 10 µM | highly inhibitory effects
6 | CN(C)c1ccc(/C=C/c2nc3ccc4ccccc4c3s2)cc1 [Compound N-283, 4-[2-(naphth[4,5-c]-thiazol-2-yl)ethenyl]-N,N-dimethylbenzenamine] | 500 nM | 50 µM | –
7 | Nc1ccccc1/C=C/c1nc2ccccc2[nH]1 [Compound N-402, 2-[2-(2-aminophenyl)ethenyl]benzimidazole] | 50 nM | 50 µM | –
8 | Cc1cccc(/C=C/c2nc3cc(C)ccc3s2)c1 [Compound N-439, 2-[2-(3-methylphenyl)-ethenyl]-5-methyl-benzothiazole] | 10 nM | 100 µM | –
9 | C/C(=C\c1ccc(N)cc1)c1nc2ccccc2[nH]1 [Compound N-442, 4-[2-(2-benzimidazolyl)-2-methylethenyl]benzenamine] | 100 nM | 100 µM | –
10 | Clc1ccc(/C=C/c2nc3ccccc3s2)c(Cl)c1 [Compound N-452, 2-[2-(2,4-dichloro-phenyl)ethenyl]-benzothiazole] | 100 nM | 100 µM | –
11 | COc1ccc(/C=C/c2nc3ccccc3s2)cc1 [Compound N-455, 2-[2-(4-methoxyphenyl)-ethenyl]benzothiazole] | 10 nM | 100 µM | –
12 | Nc1ccc(-c2cn3ccccc3n2)cc1 [Compound N-461, 2-(4-aminophenyl)-imidazo[1,2-a]pyridine] | 100 nM | >10 µM | –
13 | Cc1ccn2cc(-c3ccccc3)nc2c1 [Compound N-463, 2-phenyl-7-methyl-imidazo[1,2-a]pyridine] | 100 nM | 100 µM | –
14 | Clc1ccc2nc(-c3ccccc3)cn2c1 [Compound N-464, 2-phenyl-6-chloro-imidazo[1,2-a]pyridine] | 100 nM | 100 µM | –
15 | Clc1ccc2nc(-c3cc(-c4ccccc4)no3)cn2c1 [Compound N-465, 2-(3-phenylisoxazol-5-yl)-6-chloroimidazo [1,2-a]pyridine] | 10 nM | 100 µM | –
16 | Cc1ccn2c(Br)c(-c3ccccc3)nc2c1 [Compound N-467, 2-phenyl-3-bromo-7-methylimidazo[1,2-a]pyridine] | 1000 nM | 100 µM | –
17 | Clc1ccc2nc(-c3ccccc3)c(Br)n2c1 [Compound N-468, 2-phenyl-3-bromo-6-chloroimidazo[1,2-a]pyridine] | 1000 nM | 100 µM | –

— patent publication US20050260126A1 (priority 2002, published 2005)
